Measured values from the supplement of paper PMC10307832.

Columns and labels:
Assay in all cases: relative viability (nuclei count vs DMSO), 5 days (fraction); higher = more cells survive
Olaparib + Pictilisib = compound: O=C(c1cc(Cc2n[nH]c(=O)c3ccccc23)ccc1F)N1CCN(C(=O)C2CC2)CC1 [Olaparib] + CS(=O)(=O)N1CCN(Cc2cc3nc(-c4cccc5[nH]ncc45)nc(N4CCOCC4)c3s2)CC1 [Pictilisib] (partner 1 µM)
Outline: (§1)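 Cells from lung cancer lines were seeded into 1536-well plates and, one day later, dosed by pin tool. Treatments were either a single drug or a fixed dose of an anchor drug with five library-drug doses (not always all listed) in √10 steps. After 5 days, nuclei were stained in a one-step fixation (final 0.05% Triton X-100, 1% formaldehyde, 1 ug/ml Hoechst) and counted on 4× images, and relative viability is the treated-to-vehicle nuclei ratio, as the median of duplicate plates.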

[1] = compound: CC(C)C[C@H](NC(=O)[C@H](CCc1ccccc1)NC(=O)CN1CCOCC1)C(=O)N[C@@H](Cc1ccccc1)C(=O)N[C@@H](CC(C)C)C(=O)[C@@]1(C)CO1 [Carfilzomib] + CC(=O)c1c(C)c2cnc(Nc3ccc(N4CCNCC4)cn3)nc2n(C2CCCC2)c1=O [Palbociclib] (partner 0.5 µM)
Outline: as §1

Olaparib + Vorinostat = compound: O=C(c1cc(Cc2n[nH]c(=O)c3ccccc23)ccc1F)N1CCN(C(=O)C2CC2)CC1 [Olaparib] + O=C(CCCCCCC(=O)Nc1ccccc1)NO [Vorinostat] (partner 1 µM)
Outline: as §1

Carfilzomib + Trametinib = compound: CC(C)C[C@H](NC(=O)[C@H](CCc1ccccc1)NC(=O)CN1CCOCC1)C(=O)N[C@@H](Cc1ccccc1)C(=O)N[C@@H](CC(C)C)C(=O)[C@@]1(C)CO1 [Carfilzomib] + CC(=O)Nc1cccc(-n2c(=O)n(C3CC3)c(=O)c3c(Nc4ccc(I)cc4F)n(C)c(=O)c(C)c32)c1 [Trametinib] (partner 0.02 µM)
Outline: as §1

Cell Line NCI-H1793 has a relative viability (Olaparib + Pictilisib; first compound 0.08 µM) of 0.515, a relative viability (Olaparib + Pictilisib; first compound 0.253 µM) of 0.389 and a relative viability (Olaparib + Pictilisib; first compound 2.53 µM) of 0.251. For the same cell line, the relative viability (Olaparib + Pictilisib; first compound 8 µM) was 0.298, the relative viability ([1]; first compound 0.001 µM) was 0.338 and the relative viability ([1]; first compound 0.003162 µM) was 0.402. For the same cell line, the relative viability ([1]; first compound 0.01 µM) was 0.331, the relative viability ([1]; first compound 0.03162 µM) was 0.275 and the relative viability ([1]; first compound 0.1 µM) was 0.197. It also gave a relative viability (Olaparib + Vorinostat; first compound 0.08 µM) of 0.841, a relative viability (Olaparib + Vorinostat; first compound 0.253 µM) of 0.707 and a relative viability (Olaparib + Vorinostat; first compound 2.53 µM) of 0.683. The relative viability (Olaparib + Vorinostat; first compound 8 µM) was 0.679, the relative viability (Carfilzomib + Trametinib; first compound 0.001 µM) was 0.38 and the relative viability (Carfilzomib + Trametinib; first compound 0.003162 µM) was 0.497. For the same cell line, the relative viability (Carfilzomib + Trametinib; first compound 0.01 µM) was 0.46, the relative viability (Carfilzomib + Trametinib; first compound 0.03162 µM) was 0.472 and the relative viability (Carfilzomib + Trametinib; first compound 0.1 µM) was 0.35.
